# Results reported in paper PMC12198292, “Advancing in vitro assessment of iodide uptake inhibition: integrating a novel biotransformation pretreatment step” (Archives of Toxicology, 2025).
# Where “and” joins values, the source holds several entries; their conditions need not be identical. Equal values may be shown once. Read-outs that look alike come from different tables or passages of the source.
# Assays:
# [1] = design: method as in PubChem https://pubchem.ncbi.nlm.nih.gov/; conditions: ref PubChem https://pubchem.ncbi.nlm.nih.gov/; cited from earlier work
# human NIS [2] = molecular target: T1, human NIS (Homo sapiens, UniProt Q92911); design: host or cells: HEK293T (lentiviral transduction, puromycin selection, GFP sorting; lines NIS 02 and NIS C); conditions: cited from earlier work; for IC20: read-out: Data from literature NIS IC20
# T1 sequence (Q92911 1-643): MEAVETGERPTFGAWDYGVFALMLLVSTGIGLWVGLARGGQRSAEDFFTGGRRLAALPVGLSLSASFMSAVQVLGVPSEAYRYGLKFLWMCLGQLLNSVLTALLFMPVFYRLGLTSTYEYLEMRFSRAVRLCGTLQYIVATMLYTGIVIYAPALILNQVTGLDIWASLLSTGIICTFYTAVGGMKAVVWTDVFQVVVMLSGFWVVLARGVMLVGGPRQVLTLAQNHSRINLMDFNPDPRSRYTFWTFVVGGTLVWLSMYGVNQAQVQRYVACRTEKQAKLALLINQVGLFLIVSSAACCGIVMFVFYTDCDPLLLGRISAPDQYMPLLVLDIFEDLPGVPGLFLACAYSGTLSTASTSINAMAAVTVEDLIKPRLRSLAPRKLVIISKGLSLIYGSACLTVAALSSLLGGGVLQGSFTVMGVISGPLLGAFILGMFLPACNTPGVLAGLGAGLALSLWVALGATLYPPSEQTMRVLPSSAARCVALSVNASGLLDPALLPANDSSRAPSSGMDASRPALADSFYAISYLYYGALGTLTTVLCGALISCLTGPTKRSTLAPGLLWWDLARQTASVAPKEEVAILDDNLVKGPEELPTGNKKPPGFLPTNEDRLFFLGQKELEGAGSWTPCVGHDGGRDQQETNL
# human NIS [3] = molecular target: T1, human NIS; experiment: NIS-inhibition assay (iodide uptake, Sandell–Kolthoff reaction) on HEK293T NIS 02; assay type: cell-based; design: host or cells: HEK293T (lentiviral transduction, puromycin selection, GFP sorting; lines NIS 02 and NIS C)
# in vitro [4] = conditions: rat, FRTL-5 cells
# [5] = design: method as in PubChem https://pubchem.ncbi.nlm.nih.gov/; conditions: ref PubChem https://pubchem.ncbi.nlm.nih.gov/; cited from earlier work; remark: listed apart in the source
# NIS [6] = molecular target: T2, NIS (Rattus norvegicus, UniProt Q63008); conditions: FRTL-5, SK, read-out: Data from literature NIS IC50, cited from earlier work
# T2 construct: the endogenously NIS-expressing rat FRTL-5 cell line; host or cells: FRTL-5 (CVCL_0265)
# T2 sequence (Q63008 1-618): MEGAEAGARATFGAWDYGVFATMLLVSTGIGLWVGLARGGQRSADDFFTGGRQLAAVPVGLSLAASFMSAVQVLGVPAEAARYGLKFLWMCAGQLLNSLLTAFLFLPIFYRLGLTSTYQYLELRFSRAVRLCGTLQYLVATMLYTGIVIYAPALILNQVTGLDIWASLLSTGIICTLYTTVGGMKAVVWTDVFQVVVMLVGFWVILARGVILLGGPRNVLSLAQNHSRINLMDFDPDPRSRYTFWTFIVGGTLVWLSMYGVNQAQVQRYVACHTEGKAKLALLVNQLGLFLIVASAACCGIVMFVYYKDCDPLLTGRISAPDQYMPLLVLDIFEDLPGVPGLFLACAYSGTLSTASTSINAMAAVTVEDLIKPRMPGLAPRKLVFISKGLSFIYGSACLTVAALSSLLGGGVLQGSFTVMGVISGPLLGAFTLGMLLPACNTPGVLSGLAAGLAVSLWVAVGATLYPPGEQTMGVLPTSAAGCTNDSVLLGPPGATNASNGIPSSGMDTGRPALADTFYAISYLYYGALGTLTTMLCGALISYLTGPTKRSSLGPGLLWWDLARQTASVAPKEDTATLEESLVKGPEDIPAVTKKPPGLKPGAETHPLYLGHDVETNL
# human NIS [7] = molecular target: T1, human NIS; experiment: NIS-inhibition assay (iodide uptake, Sandell–Kolthoff reaction) on HEK293T NIS C; assay type: cell-based; design: host or cells: HEK293T (lentiviral transduction, puromycin selection, GFP sorting; lines NIS 02 and NIS C)
# NIS [8] = molecular target: T2, NIS; experiment: NIS-inhibition assay (iodide uptake, Sandell–Kolthoff reaction) on FRTL-5; assay type: cell-based; conditions: mean ± SD, ≥ 3 independent experiments; 2 h exposure; SK reaction
# human NIS [9] = molecular target: T1, human NIS; experiment: Biotransformation (BTS, rat S9)-augmented NIS-inhibition assay, HEK293T NIS02; conditions: for effect of fully active BTS (W/S9, W/cof) on NIS inhibition versus control setups: two-way ANOVA, p < 0.05
# human NIS [10] = molecular target: T1, human NIS
# in vitro [11] = conditions: human, HEK293T NIS C cells
# NIS [12] = molecular target: T2, NIS; conditions: FRTL-5, RAIU, read-out: Data from literature NIS IC50, cited from earlier work
# hNIS = system: hNIS; design: method as in Concilio et al., 2020; conditions: HeLa transfected with hNIS; RAIU; ref Concilio et al., 2020; read-out: Data from literature NIS IC50; cited from earlier work
# human NIS [13] = molecular target: T1, human NIS; design: host or cells: HEK293T (lentiviral transduction, puromycin selection, GFP sorting; lines NIS 02 and NIS C); method as in Dong et al., 2019; conditions: hNIS-HEK293T-EPA, SK, ref Dong et al., 2019, cited from earlier work
# human NIS [14] = molecular target: T1, human NIS; design: method as in Dong et al., 2019; conditions: MCF7hNIS, SK, ref Dong et al., 2019, cited from earlier work
# zebrafish NIS = system: zebrafish NIS; design: method as in Concilio et al., 2020; conditions: HeLa transfected with zebrafish NIS; RAIU; ref Concilio et al., 2020; read-out: Data from literature NIS IC50; cited from earlier work
# [15] = ref PubChem https://pubchem.ncbi.nlm.nih.gov/; cited from earlier work
# whale NIS = system: whale NIS; design: method as in Concilio et al., 2020; conditions: HeLa transfected with whale NIS; RAIU; ref Concilio et al., 2020; read-out: Data from literature NIS IC50; cited from earlier work
# in vitro [16] = conditions: human
# HEK293T NIS02 cells = experiment: Neutral red uptake viability assay, HEK293T NIS02; conditions: 100 µM
# [17] = hNIS-HEK293T-EPA, RAIU, ref Hallinger et al., 2017
# [18] = mean ± SD, ≥ 3 independent experiments, 2 h exposure, SK reaction, read-out: NIS IC50 HEK293T NIS 02
# [19] = mean ± SD, ≥ 3 independent experiments, 2 h exposure, SK reaction, read-out: NIS IC50 HEK293T NIS C
# [20] = read-out: Data from literature NIS IC20
# [21] = read-out: Data from literature NIS IC50
smiles,measurement,setting,value
"CC(C)(c1ccc(O)cc1)c1ccc(O)cc1 [BPA, Bisphenol A]",log Kow,[1],3.32
same,IC20,human NIS [2]; [17],35.5 µM
same,IC20,"human NIS [2]; hNIS-HEK293T-EPA, RAIU, ref US-EPA, 2024",24.3 ± 21.6 µM
same,Data from literature NIS IC50,"human NIS [2]; hNIS-HEK293T-EPA, RAIU, ref Wang et al., 2018",n.e.
same,IC20,"human NIS [2]; hNIS-HEK293T-EPA, RAIU, ref Wang et al., 2019",19.5 µM
same,IC50,human NIS [3]; [18],111 ± 75 µM
same,IC20 at 2 h,in vitro [4],364 µM
same,Henry‘s law,[5],4.0x10^-11 atm- m^3/mol
same,IC50,"NIS [6]; ref Wu et al., 2016",112 µM
same,IC50,human NIS [7]; [19],309 ± 2.5 µM
same,IC50,NIS [8],302 ± 197 µM
same,increase of IC20 by preincubation in fully active BTS setup compared to the denatured BTS setup,"human NIS [9]; W/S9, W/cof vs D S9, W/cof",~6.3 fold
same,IC20,"human NIS [9]; read-out: NIS inhibition IC20 SM, standard method without preincubation, run in parallel, three independent experiments",4.7 ± 6 µM
same,"effect of fully active BTS (W/S9, W/cof) on NIS inhibition versus control setups",human NIS [10],statistically significant reduction in NIS inhibition
same,IC20 at 2 h,in vitro [11],181 µM
"[O-][Cl+3]([O-])([O-])O [PCL, Perchlorate, reference compound]",IC50,"NIS [12]; ref Buckalew et al., 2020",0.2 µM
same,IC50,"NIS [12]; ref Waltz et al., 2010",0.14 µM
same,IC20,"human NIS [2]; hNIS-HEK293T-EPA, RAIU, ref Dong et al., 2019",0.1 µM
same,IC50,"human NIS [2]; hNIS-HEK293T-EPA, RAIU, ref Dong et al., 2019, read-out: Data from literature NIS IC50",0.53 µM
same,IC20,human NIS [2]; [17],0.2 µM
same,IC50,human NIS [3]; [18],1.65 ± 0.57 µM
same,IC50,hNIS,1.6 µM and 1.56 µM
same,IC20,human NIS [13]; [20],0.2 µM
same,IC50,human NIS [13]; [21],0.8 µM
same,IC20,human NIS [14]; [20],0.2 µM
same,IC50,human NIS [14]; [21],0.5 µM
same,IC50,"NIS [6]; ref Waltz et al., 2010",0.1 µM
same,IC50,"NIS [6]; ref Wu et al., 2016",0.3 µM
same,IC50,human NIS [7]; [19],14.9 ± 8.3 µM
same,IC50,NIS [8],5.1 ± 4.6 µM
same,IC50,zebrafish NIS,0.08 µM
same,solubility in water,[15],>2000 mg/mL
same,"effect of fully active BTS (W/S9, W/cof) on NIS inhibition versus control setups",human NIS [9],no significant differences were observed
same,IC50,whale NIS,4.6 µM and 4.59 µM
"Oc1cc(Cl)ccc1Oc1ccc(Cl)cc1Cl [TCS, Triclosan]",IC20,human NIS [2],2.6 µM
same,IC50,human NIS [3]; NIS IC50 HEK293T NIS 02,18.5 ± 9.9 µM
same,IC50,"NIS [6]; ref Wu et al., 2016",21.3 µM
same,IC50,human NIS [7],34.8 ± 23.5 µM
same,IC50,NIS [8],39.3 ± 18.9 µM
same,IC20 at 2 h,in vitro [16],45.9 µM
same,increase of IC20 by preincubation in fully active BTS setup compared to the denatured BTS setup,human NIS [9],approximately 5 fold
same,IC20,"human NIS [9]; read-out: NIS inhibition IC20 D S9, W/cof, 5 h preincubation with denatured S9 and cofactors, three independent experiments",1.07 ± 0.65 µM
same,IC20,human NIS [9]; read-out: NIS inhibition IC20 SM,1.78 ± 1.12 µM
same,IC20,"human NIS [9]; read-out: NIS inhibition IC20 W/O S9, W/cof, 5 h preincubation without S9 fraction, with all cofactors, three independent experiments",1.02 ± 0.82 µM
same,"effect of fully active BTS (W/S9, W/cof) on NIS inhibition versus control setups",human NIS [9],statistically significant reduction in NIS inhibition
same,cytotoxicity in the standard NIS assay (NR and CTG),HEK293T NIS02 cells,cytotoxic
